# In patent publication US20140243403A1, “TREATING COLORECTAL, PANCREATIC, AND LUNG CANCER” (The General Hospital Corporation, priority 2011, published 2014):
# Assays:
# [1] = test system: threonine 172 phosphorylation of the AMP-activated kinase (p-AMPK); assay: AMPK threonine 172 phosphorylation, western blot; format: cell-based, human; conditions: 24 h
# Protocol: (§1) (B) Effects of TAK1 inhibition on apoptosis and signaling in a representative panel of KRAS-independent and KRAS-dependent cell lines, 24 h after treatment. PARP and caspase-3 cleavage are shown as indicators of apoptosis, and AMPK threonine 172 (T172) phosphorylation is shown as a downstream indicator of TAK1 signaling activity. GAPDH serves as a gel loading control.
# (§2) Pharmacologic TAK1 inhibition triggered apoptosis in KRAS-dependent colon cancer cells, as measured by PARP and caspase-3 cleavage (FIG. 3B). […] Thus, low concentrations of 5Z-7-oxozeaenol, in the range of 0.625 to 1.25 μM, promote apoptosis selectively in KRAS-dependent colon cancer cells.
# (§3) The following antibodies were used for western blotting in the above examples: KRAS OP-24, Pan-Ras OP-40 (Calbiochem); PARP (BD Pharmigen, 4C10-5); BMP-7 (Abcam); phospho-ERK, Axin2, phospho Smad1 and total Smad1/5/8, phospho- and total AMPK, phospho- and total AKT, cleaved Caspase-3 (Cell Signaling); GAPDH (Chemicon); E-Cadherin, beta-catenin (BD Pharmigen) Syk, TAK1, total ERK1 (Santa Cruz). For secreted BMP-7 levels, 1×10^6 HT29 cells stably expressing ER-KRAS(12V) were plated in 10 cm dishes. 24 h post-plating, 10 ml serum-free DME/F12 medium (Gibco) was added. Conditioned media was collected 24 h post-induction of ER-KRAS(12V) with 4-HT and concentrated to […], using AMICON® Ultra-4 Centrifugal Filter Units with 3 kDa membranes. […]
# [2] = test system: TOP-FLASH reporter in YAPC cells; assay: TOP-FLASH reporter in YAPC PDAC cells; format: cell-based; conditions: YAPC cells, simultaneous treatment with BIO
# Description: (E) TOP-FLASH reporter activity in KRAS mutant PDAC cell lines following inhibition of GSK-3 kinase with increasing concentrations of the small molecule inhibitor BIO. PANC-1 are KRAS-independent cells and YAPC are KRAS-dependent cells. Luminescence counts (photons/sec) are plotted on the y-axis. Data are representative of three independent experiments+/−SEM.
# (F) TOP-FLASH reporter dose-response relationships in PANC-1 and YAPC cells following combined treatment with GSK-3 and TAK1 inhibitors (BIO and 5Z-7-Oxozeaenok respectively). Luminescence counts (photons/sec) are plotted on the y-axis. Data are represented as the means of triplicates+/−SEM.
# To further test the role of Wnt signaling in this context, experiments were performed using two KRAS mutant pancreatic cancer (PDAC) cell lines, PANC-1 and YAPC, which are APC wild-type. PANC-1 cells are KRAS-independent, whereas YAPC cells are KRAS-dependent, a distinction that has been linked to increased KRAS signaling in YAPC cells (Singh et al., 2009). […] In contrast, PANC-1 cells undergo stronger induction of TOP-FLASH activity with combined GSK-3 and TAK1 inhibition (FIG. 11F, […]). […] Finally, a constitutively-activated mutant of β-catenin (CTNNB1-CA) containing S33Y and S45A missense mutations was introduced into KRAS-dependent SW620 cells. This mutant caused partial losses in both KRAS and TAK1 dependencies (FIGS. 13A-C). […]
# Wnt target gene Axin 2 = assay: Axin 2 protein expression, western blot; format: cell-based, human
# Protocol: (C) Protein expression levels of the Wnt target gene Axin 2 following treatment of cells with the indicated concentrations. GAPDH serves as a loading control.
# In contrast, KRAS depletion had no effect in one KRAS-independent line (SW1463) and increased TOP-FLASH activity in another (LS174T). […] To define the effect of TAK1 signaling on a physiological Wnt target gene, protein expression levels of the endogenous Axin 2 gene (Lustig et al., 2002) were measured following treatment with 5Z-7-oxozeaenol. […] Thus, both KRAS and TAK1 suppression selectively suppress β-catenin-mediated transcription and Wnt target gene expression in KRAS-dependent cells.
# as §3
# [3] = test system: HT29 cells expressing BMPR1A-CA (Q233D); assay: Sensitivity of HT29 cells expressing BMPR1A-CA; format: cell-based, human
# Protocol: (E) Introduction of a V5-tagged constitutively activated (CA) mutant of the BMP receptor, BMPR1A (Q233D) or control vector in HT29 cells and effects on 5Z-7-oxozeaenol sensitivity in terms of IC50 values.
# To determine whether TAK1-independent cells could be driven toward TAK1 dependency by enhanced KRAS/Wnt signaling, a series of reconstitution experiments was performed. HT29, SW620 or SKCO1 cells were infected with recombinant lentiviruses encoding either BMPR1A-CA and CTNNB1-CA or vector control (containing the ccDB gene). For BMPR1A-CA stable expression, cells were selected in 5 μg/mlBlasticidin for 7 days and pooled clones were established. Stable expression was verified using the V5 epitope tag on the BMPR1A transgene product. For CTNNB1-CA, the pWPI recombinant lentiviruses encode GFP driven by IRES. Thus, stable cell clones were obtaining by FACS live cell sorting to obtain the top 10% of GFP expressing cells. The SW620-CTNNB1-CA stable cell clones were passaged 1:5 every 2 days and assayed for KRAS dependency after the fifth passage.
# To further define the role of BMP signaling in TAK1 dependency, a constitutively-activated (CA) variant (Q233D) of BMPR1A (Zou et al., 1997) was ectopically expressed in HT29 cells. […] This was accompanied by dose-dependent decreases in Axin 2 and phosphorylated Smad2 levels. […]
# [4] = test system: non-small cell lung cancer (NSCLC) cells; assay: Sensitivity of KRAS mutant NSCLC cell lines; format: cell-based; conditions: 4 NSCLC cell lines, APC wild-type
# Protocol: (B) 5Z-7-oxozeaenol IC50 values for KRAS mutant PDAC and NSCLC cell lines.
# To determine if sensitivity to TAK1 inhibition is specific to colon cancer-derived cell lines, sensitivity to 5Z-7-oxozeaenol was assessed in 5 KRAS mutant pancreatic ductal adenocarcinoma (PDAC) and 4 non-small cell lung cancer (NSCLC) cells, all of which are APC wild-type (FIG. 9B).
# [5] = test system: KRAS-independent colon cancer cells; assay: Apoptosis by PARP and caspase-3 cleavage; format: cell-based, human; conditions: except at very high doses
# Protocol: as §1, §2
compound,measurement,setting,value
COc1cc(O)c2c(c1)/C=C/C[C@H](O)[C@H](O)C(=O)/C=C\C[C@H](C)OC2=O [5Z-7-oxozeaenol],threonine 172 phosphorylation of AMPK (p-AMPK),[1]; KRAS-dependent colon cancer cells,reduced
same,AMPK phosphorylation,[1]; KRAS-independent cells,unaffected
same,effect on BIO-mediated TOP-FLASH induction,[2],abrogates the BIO-mediated TOP-FLASH induction
same,Axin 2 expression,Wnt target gene Axin 2; KRAS-dependent cells,dose-dependent reduction
same,"Axin 2 expression, dose-dependent reduction",Wnt target gene Axin 2; KRAS-independent cells,not
same,IC50,[3],1100 nM
same,sensitivity to 5Z-7-oxozeaenol,[4],largely refractory
same,caspase-3 or PARP cleavage,[5],little or no
